Columns and labels:
[1] = target: T1, human STAT6/pIL-4Rα (Homo sapiens, UniProt P42226); assay: Binding inhibitory activity between human STAT6/pIL-4Rα by fluorescence polarization method; settings: rhSTAT6 (123-658) / FAM-pIL-4Rα peptide
T1 construct: histidine tag
T1 sequence (P42226 123-658): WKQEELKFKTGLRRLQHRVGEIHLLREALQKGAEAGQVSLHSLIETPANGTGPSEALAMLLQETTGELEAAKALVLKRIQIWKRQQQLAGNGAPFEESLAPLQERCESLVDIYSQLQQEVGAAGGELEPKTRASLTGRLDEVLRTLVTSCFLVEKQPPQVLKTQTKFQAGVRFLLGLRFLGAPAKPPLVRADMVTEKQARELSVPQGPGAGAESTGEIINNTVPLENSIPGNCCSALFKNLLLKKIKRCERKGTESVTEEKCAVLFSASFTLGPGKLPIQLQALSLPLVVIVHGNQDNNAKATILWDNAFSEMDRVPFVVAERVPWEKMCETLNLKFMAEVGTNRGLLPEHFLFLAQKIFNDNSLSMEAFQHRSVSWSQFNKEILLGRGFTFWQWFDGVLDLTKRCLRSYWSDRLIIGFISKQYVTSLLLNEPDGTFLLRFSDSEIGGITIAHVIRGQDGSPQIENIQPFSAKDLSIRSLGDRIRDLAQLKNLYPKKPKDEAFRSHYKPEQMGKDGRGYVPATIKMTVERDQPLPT
Outline: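 His-tagged human STAT6 (residues 123–658, E. coli-expressed) was preincubated with compound for 30 min at RT in the dark, in buffer e.g. 50 mM NaCl, 10 mM HEPES pH 7.0, 1 mM DTT, 1 mM EDTA, 0.01% NP-40. FAM-pIL-4Rα peptide was then added for 30 min. Fluorescence polarisation was read at 485/535 nm, with IC50 interpolated linearly between two points flanking 50%.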

[2] = system: human STAT6; assay: Human STAT6 dependent reporter activity (IL-4 stimulated STAT6 reporter assay using STAT6-HEK293 cells); type: cell-based; settings: Homo sapiens, IL-4 stimulation, luciferase activity, read-out: Inhibition rate (%); for inhibition at 0.1 µM: compound 0.1 μmol/L; for inhibition at 1 µM: compound 1 μmol/L

| SMILES | IC50 [1] | inhibition at 0.1 µM [2] | inhibition at 1 µM [2] |
| --- | --- | --- | --- |
| CCn1c(-c2ccc(-n3ncn(C)c3=O)cc2)cc2cccc(C(=O)Nc3ccc(F)c(C(N)=O)c3)c21 [Ex. 156] | 400 nM | 46% | 99% |
| CCn1c(-c2ccc(N3C(=O)C(C)CC3C)cc2)cc2cccc(C(=O)Nc3ccc(F)c(C(N)=O)c3)c21 (stereo not drawn) [Ex. 158] | 730 nM | 44% | 96% |
| CCn1c(-c2ccc(N3C(=O)C(C)CC3C)cc2)cc2cc(C(F)(F)F)cc(C(=O)Nc3cccc(C(N)=O)c3F)c21 (stereo not drawn) [Ex. 161] | 870 nM | 86% | 99% |
| CCn1c(-c2ccc(-n3c(C)nn(C)c3=O)cc2)cc2ccnc(C(=O)Nc3cccc(C(=O)Nc4cn(C)c(=O)n(C)c4=O)c3)c21 [Ex. 166] | 350 nM | 76% | 99% |
| CCn1c(-c2ccc(-n3c(C)nn(C)c3=O)cc2)cc2ccnc(C(=O)Nc3cccc(C(=O)Nc4cncn(C)c4=O)c3)c21 [Ex. 167] | 240 nM | 90% | 99% |
| CCn1c(-c2ccc(-n3c(C)nn(C)c3=O)cc2)cc2ccnc(C(=O)Nc3cccc(C(=O)Nc4cccn(C)c4=O)c3)c21 [Ex. 169] | 400 nM | 81% | 99% |
| CCn1c(-c2ccc(-n3c(C)nn(C)c3=O)cc2)cc2cc(C(F)(F)F)cc(C(=O)Nc3cccc(C(=O)NCC(=O)N(C)C)c3)c21 [Ex. 170] | 400 nM | 49% | 99% |
| CNC(=O)c1cccc(NC(=O)c2cc(C(F)(F)F)cc3cc(-c4ccc(-n5c(C)nn(C)c5=O)cc4)n(CCOC)c23)n1 [Ex. 172] | 380 nM | 17% | 83% |
| COCCn1c(-c2ccc(-n3c(C)nn(C)c3=O)cc2)cc2cc(C(F)(F)F)cc(C(=O)Nc3cccc(C(=O)Nc4cccc(OC)n4)c3)c21 [Ex. 173] | 340 nM | 43% | 100% |
| COCCn1c(-c2ccc(-n3c(C)nn(C)c3=O)cc2)cc2cc(C(F)(F)F)cc(C(=O)Nc3cccc(C(=O)Nc4cc(Cl)n(C)n4)c3)c21 [Ex. 176] | 280 nM | 93% |  |
| COCCn1c(-c2ccc(-n3c(C)nn(C)c3=O)cc2)cc2cc(C(F)(F)F)cc(C(=O)Nc3cccc(C(=O)Nc4cc(C#N)n(C)n4)c3)c21 [Ex. 179] | 320 nM | 93% |  |
| COCCn1c(-c2ccc(-n3c(C)nn(C)c3=O)cc2)cc2cc(C(F)(F)F)cc(C(=O)Nc3cccc(C(=O)Nc4ccc(C)nn4)c3)c21 [Ex. 182] | 350 nM | 52% | 100% |
| CCn1c(-c2ccc(-n3c(C)nn(C)c3=O)cc2)cc2ccnc(C(=O)Nc3cccc(C(=O)Nc4ccc(C)n(C)c4=O)c3)c21 [Ex. 187] | 340 nM | 88% |  |
| CCn1c(-c2ccc(-n3c(C)nn(C)c3=O)cc2)cc2ccnc(C(=O)Nc3cccc(C(=O)NCC#N)c3F)c21 [Ex. 190] | 410 nM | 66% | 97% |
| CCn1c(-c2ccc(-n3c(C)nn(C)c3=O)cc2)cc2ccnc(C(=O)Nc3ccc(F)c(C(=O)Nc4cn(C)c(=O)n(C)c4=O)c3)c21 [Ex. 191] | 290 nM | 63% |  |
| CCn1c(-c2ccc(-n3c(C)nn(C)c3=O)cc2)cc2ccnc(C(=O)Nc3ccc(F)c(C(=O)Nc4cncn(C)c4=O)c3)c21 [Ex. 192] | 340 nM | 71% |  |
| Cc1nn(C)c(=O)n1-c1ccc(-c2cc3ccnc(C(=O)Nc4cccc(C(=O)Nc5cccn(C)c5=O)c4)c3n2CC2CC2)cc1 [Ex. 199] | 270 nM | 67% |  |

Second part, led by results:

| IC50 [1] | SMILES | inhibition at 0.1 µM [2] | inhibition at 1 µM [2] |
| --- | --- | --- | --- |
| 310 nM | CCn1c(-c2ccc(N3C(=O)C(C)CC3C)nc2)cc2cc(C(F)(F)F)cc(C(=O)Nc3ccc(F)c(C(N)=O)c3)c21 (stereo not drawn) [Ex. 157] | 62% |  |
| 530 nM | CCn1c(-c2ccc(N3C(=O)C(C)CC3C)cc2)cc2cc(C(F)(F)F)cc(C(=O)Nc3cccc(C(N)=O)c3)c21 (stereo not drawn) [Ex. 159] | 50% | 95% |
| 410 nM | CCn1c(-c2ccc(N3C(=O)C(C)CC3C)cc2)cc2cc(C(F)(F)F)cc(C(=O)Nc3ccc(F)c(C(N)=O)c3)c21 (stereo not drawn) [Ex. 160] | 93% | 100% |
| 270 nM | COCCn1c(-c2ccc(-n3c(C)nn(C)c3=O)cc2)cc2cc(C(F)(F)F)cc(C(=O)Nc3cccc(C(=O)Nc4cc[nH]n4)c3)c21 [Ex. 163] | 60% | 99% |
| 200 nM | CCn1c(-c2ccc(-n3c(C)nn(C)c3=O)cc2)cc2ccnc(C(=O)Nc3cccc(C(=O)Nc4cc(C)cn(C)c4=O)c3)c21 [Ex. 165] | 86% | 100% |
| 350 nM | CCn1c(-c2ccc(-n3c(C)nn(C)c3=O)cc2)cc2ccnc(C(=O)Nc3ccc(F)c(C(=O)NCC#N)c3)c21 [Ex. 168] | 60% | 99% |
| 330 nM | COCCn1c(-c2ccc(-n3c(C)nn(C)c3=O)cc2)cc2cc(C(F)(F)F)cc(C(=O)Nc3cccc(C(N)=O)n3)c21 [Ex. 171] | 29% | 95% |
| 680 nM | COCCn1c(-c2ccc(-n3c(C)nn(C)c3=O)cc2)cc2cc(C(F)(F)F)cc(C(=O)Nc3cccc(C(=O)Nc4cccc(COC)n4)c3)c21 [Ex. 174] | 70% |  |
| 400 nM | COCCn1c(-c2ccc(-n3c(C)nn(C)c3=O)cc2)cc2cc(C(F)(F)F)cc(C(=O)Nc3cccc(C(=O)Nc4cccn(C)c4=O)c3)c21 [Ex. 175] | 65% |  |
| 300 nM | CCn1ccc(NC(=O)c2cccc(NC(=O)c3cc(C(F)(F)F)cc4cc(-c5ccc(-n6c(C)nn(C)c6=O)cc5)n(CCOC)c34)c2)n1 [Ex. 177] | 99% |  |
| 280 nM | COCCn1c(-c2ccc(-n3c(C)nn(C)c3=O)cc2)cc2cc(C(F)(F)F)cc(C(=O)Nc3cccc(C(=O)Nc4ccn(C5CC5)n4)c3)c21 [Ex. 178] | 100% |  |
| 300 nM | COCCn1c(-c2ccc(-n3c(C)nn(C)c3=O)cc2)cc2cc(C(F)(F)F)cc(C(=O)Nc3cccc(C(=O)Nc4ccn(CC5CC5)n4)c3)c21 [Ex. 180] | 100% |  |
| 310 nM | COCCn1c(-c2ccc(-n3c(C)nn(C)c3=O)cc2)cc2cc(C(F)(F)F)cc(C(=O)Nc3cccc(C(=O)Nc4ccn(CC(=O)OC)n4)c3)c21 [Ex. 181] | 94% |  |
| 230 nM | COCCn1c(-c2ccc(-n3c(C)nn(C)c3=O)cc2)cc2cc(C(F)(F)F)cc(C(=O)Nc3cccc(C(=O)Nc4ccn(CC#N)n4)c3)c21 [Ex. 183] | 86% |  |
| 470 nM | CCn1c(-c2ccc(-n3c(C)nn(C)c3=O)cc2)cc2ccnc(C(=O)Nc3ccc(F)c(C(=O)Nc4cc[nH]n4)c3)c21 [Ex. 185] | 34% | 96% |
| 330 nM | CCn1c(-c2ccc(-n3c(C)nn(C)c3=O)cc2)cc2ccnc(C(=O)Nc3cccc(C(=O)Nc4cccn(C(F)F)c4=O)c3)c21 [Ex. 186] | 43% | 96% |
| 320 nM | CCn1c(-c2ccc(-n3c(C)nn(C)c3=O)cc2)cc2ccnc(C(=O)Nc3cccc(C(=O)Nc4c(C)ccn(C)c4=O)c3)c21 [Ex. 188] | 44% | 97% |
| 380 nM | CCn1c(-c2ccc(-n3c(C)nn(C)c3=O)cc2)cc2ccnc(C(=O)Nc3cccc(C(=O)NCC#N)c3)c21 [Ex. 189] | 72% | 97% |
| 420 nM | CCn1c(-c2ccc(-n3c(C)nn(C)c3=O)cc2)cc2ccnc(C(=O)Nc3cccc(C(=O)Nc4cncn(C)c4=O)c3F)c21 [Ex. 193] | 67% | 98% |
| 420 nM | CCn1c(-c2ccc(-n3c(C)nn(C)c3=O)cc2)cc2ccnc(C(=O)Nc3ccc(F)c(C(=O)Nc4cc(C)cn(C)c4=O)c3)c21 [Ex. 194] | 68% | 98% |
| 290 nM | CCn1c(-c2ccc(-n3c(C)nn(C)c3=O)cc2)cc2ccnc(C(=O)Nc3ccc(F)c(C(=O)Nc4ccc(C)n(C)c4=O)c3)c21 [Ex. 195] | 56% |  |
| 270 nM | COCCn1c(-c2ccc(-n3c(C)nn(C)c3=O)cc2)cc2ccnc(C(=O)Nc3cccc(C(=O)Nc4cccn(C)c4=O)c3)c21 [Ex. 196] | 81% |  |
| 250 nM | COCCn1c(-c2ccc(-n3c(C)nn(C)c3=O)cc2)cc2ccnc(C(=O)Nc3cccc(C(=O)Nc4cccc(OC)n4)c3)c21 [Ex. 197] | 73% |  |
| 410 nM | CCn1c(-c2ccc(-n3c(C)nn(C)c3=O)cc2)cc2ccnc(C(=O)Nc3cccc(C(=O)Nc4cc(Cl)n(C)n4)c3)c21 [Ex. 198] | 96% |  |
